Legend:
[1] = tested on: LLC lung cancer or 4T1 breast cancer cells; test: Example 2: syngeneic tumor models treated with lymphatic system modulator plus immunotherapy or chemotherapy; format: in vivo, syngeneic mice (C57 Black 6 and BALB/c)
Experimental: One to two million cells of either LLC lung cancer or 4T1 breast cancer cells are subcutaneously implanted into syngeneic mice (C57 Black 6 and BALB/c). Animals are treated with vehicle alone as a control, with chemotherapy (cisplatin), or with immunotherapy alone (anti-PD-1 mAb). Animals are imaged by intravascular ultrasound (IVUS), CT/PET, or MRI, for growth of the primary tumor and for metastatic spread of the tumor. Blood samples are obtained for a multiplexed measure of serum biomarkers of lymphatic biology function (Millipore mouse 24 plex; MAGPMAG-24K). Around Study Day 10, animals are injected with 1-1.5 million more tumor cells into the tail vein. Between Study Days 13 and 16, the primary tumor is surgically resected, and animals resume treatment. […]
Animals are imaged weekly, and blood for serum multiplex measurements is continued and evaluated. Survival studies and analyses are performed, and animals are evaluated based on overall survival, progression-free survival, objective and durable response, and serum biomarker measurements. Lung tissue, lymphatics, and regional lymph nodes and tumor tissue are concurrently evaluated upon animal sacrifice for functional immune evaluation and analysis of the tumor and disease analysis.

[2] = tested on: 4T1 and LLC tumor cells, also transfected to overexpress VEGF-C; test: Example 3: syngeneic 4T1 and LLC models incl. VEGF-C overexpressing tumor cells, lymphangitic carcinomatosis; format: in vivo, syngeneic mice; settings: preventative treatment, alone or with an immune modulator or chemotherapy
Experimental: The experiments from Example 2 are performed using the same animal models (4T1 and LLC) in syngeneic mice. Another group of tumor cells is transfected to overexpress VEGF-C to stimulate severe lymphatic dysregulation. Overexpression of VEGF C by tumor cells can result in a severe lymphatic dysregulation and an extremely aggressive lymphangitic carcinomatosis, which is a subset of the groups of dysregulated lymphatic disorders resistant to immunotherapy (Example 1). […] In this experiment, it is evaluated whether advanced tumors with inherent lymphatic dysregulation or with exaggerated lymphatic dysregulation driven by VEGF C hyperexpression can be treated and whether treatment can prevent mice with cancers from progressing to severe lymphangitic carcinomatosis.
Treatment groups include (1) anti-PD-1 mAb alone; (2) anti-PD-1-mAb plus lymphatic system modulator (anti-VEGF C or anti-VEGF R3 mAb, or SAR131675); (3) cisplatin alone; (4) lymphatic system modulator (anti-VEGF C or anti-VEGF R3 mAb, or SAR131675) plus cisplatin; and (5) negative control (no treatment).

Row | Structure (SMILES) | response of animals to single agent ([1]; agent alone) | objective and functional outcomes [2] | progression to lymphangitic carcinomatosis [2] | immunological function ([1]; concurrent with immune modulator (checkpoint inhibitor) or chemotherapy (cisplatin))
1 | N.N.[Cl][Pt][Cl] [cisplatin] | no to marginal response |  |  | 
2 | CCn1c(N)c(C(=O)NC)c(=O)c2ccc(C#C[C@@](C)(O)COC)nc21 [SAR131675] |  | significantly improves | no mouse progresses | functional immunological improvements

Source: patent US12460003B2, “Methods of assessing and treating cancer in subjects having dysregulated lymphatic systems” (Ensemble Group Holdings, priority 2016, dated 2025)
